In the test the target is SIK2 (Homo sapiens, UniProt Q9H0K1). The test can be described thus: SIK2 Enzymatic Assay High Version 2 (High ATP). In kind it is biochemical. Conditions: enzyme 6 nM, 6 mM ATP and 400 μM HDAC5tide (each 2× final concentration); 30 minutes pre-incubation, 2 hours; ADP-Glo Max luminescence; read-out: SIK2 high ATP IC50 (μM) (Test Example 2). The method, boiled down: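 At room temperature, enzyme (6 nM, 2× final) was preincubated with compound for 30 min, then 6 mM ATP and 400 μM HDAC5tide (both 2× final) were added for 2 h. ADP formed was measured by ADP-Glo Max (2 h reagent, 1 h detection) using luminescence.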
(ADP-Glo first removes unused ATP, then detects ADP through luciferase.)

Sequence of SIK2 (Q9H0K1 whole entry, species assumed): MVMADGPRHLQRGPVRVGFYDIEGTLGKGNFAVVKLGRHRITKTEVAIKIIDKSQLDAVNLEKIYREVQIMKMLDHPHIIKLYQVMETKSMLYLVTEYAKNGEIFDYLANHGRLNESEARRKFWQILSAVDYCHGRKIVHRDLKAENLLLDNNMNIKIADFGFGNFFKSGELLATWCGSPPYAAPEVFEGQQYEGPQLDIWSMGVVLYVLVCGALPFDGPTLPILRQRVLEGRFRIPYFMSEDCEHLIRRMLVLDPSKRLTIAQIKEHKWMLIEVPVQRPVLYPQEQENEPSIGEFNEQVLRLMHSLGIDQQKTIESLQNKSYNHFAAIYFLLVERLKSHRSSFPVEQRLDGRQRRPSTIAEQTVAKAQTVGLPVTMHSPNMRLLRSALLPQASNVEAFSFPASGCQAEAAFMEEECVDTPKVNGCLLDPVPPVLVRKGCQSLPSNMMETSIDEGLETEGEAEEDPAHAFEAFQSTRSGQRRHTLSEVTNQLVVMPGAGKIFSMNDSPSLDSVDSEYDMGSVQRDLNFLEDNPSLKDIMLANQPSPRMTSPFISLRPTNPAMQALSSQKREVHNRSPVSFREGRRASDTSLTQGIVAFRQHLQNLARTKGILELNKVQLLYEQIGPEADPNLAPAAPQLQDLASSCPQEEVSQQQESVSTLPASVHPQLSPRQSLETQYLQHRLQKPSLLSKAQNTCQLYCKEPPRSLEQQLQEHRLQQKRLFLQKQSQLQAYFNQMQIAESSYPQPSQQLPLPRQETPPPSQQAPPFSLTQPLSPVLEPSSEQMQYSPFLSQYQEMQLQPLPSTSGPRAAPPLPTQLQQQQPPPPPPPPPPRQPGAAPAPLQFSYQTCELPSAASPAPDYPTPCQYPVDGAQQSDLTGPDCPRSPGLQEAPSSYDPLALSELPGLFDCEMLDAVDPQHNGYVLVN

`CC(C)(C#N)COc1cnc(OC(F)F)cc1-c1ccn2nc(Nc3cnccn3)cc2c1` [Example 707, 3-[[6-(difluoromethoxy)-4-[2-(pyrazin-2-ylamino)pyrazolo[1,5-a]pyridin-5-yl]-3-pyridyl]oxy]-2,2-dimethyl-propanenitrile]: the IC50 (as a rule, the point on the concentration scale where inhibition reaches its midpoint) was found to be 0.0056 µM. On to `CC(C)(C#N)COc1cnc(OC(F)F)cc1-c1ccn2nc(Nc3cccnn3)cc2c1` [Example 708, 3-[[6-(difluoromethoxy)-4-[2-(pyridazin-3-ylamino)pyrazolo[1,5-a]pyridin-5-yl]-3-pyridyl]oxy]-2,2-dimethyl-propanenitrile], for which the IC50 was 0.00591 µM. As to `Cc1cnc(Nc2cc3cc(-c4cc(OC(F)F)ncc4OCC(C)(C)C#N)ccn3n2)cn1` [Example 709, 3-[[6-(difluoromethoxy)-4-[2-[(5-methylpyrazin-2-yl)amino]pyrazolo[1,5-a]pyridin-5-yl]-3-pyridyl]oxy]-2,2-dimethyl-propanenitrile], the IC50 was 0.00302 µM. Then `Cc1cc(Nc2cc3cc(-c4cc(OC(F)F)ncc4OCC(C)(C)C#N)ccn3n2)nc(N2CCOCC2)n1` [Example 710, 3-[[6-(difluoromethoxy)-4-[2-[(6-methyl-2-morpholino-pyrimidin-4-yl)amino]pyrazolo[1,5-a]pyridin-5-yl]-3-pyridyl]oxy]-2,2-dimethyl-propanenitrile], with 0.0094 µM. Turning to `Cc1ccc(Nc2cc3cc(-c4cc(OC(F)F)ncc4OCC(C)(C)C#N)ccn3n2)nn1` [Example 711, 3-[[6-(difluoromethoxy)-4-[2-[(6-methylpyridazin-3-yl)amino]pyrazolo[1,5-a]pyridin-5-yl]-3-pyridyl]oxy]-2,2-dimethyl-propanenitrile], the IC50 was found to be 0.01 µM. Regarding `CC(C)(C#N)COc1cnc(OC(F)F)cc1-c1ccn2nc(Nc3ccc(C(C)(C)O)nn3)cc2c1` [Example 712, 3-[[6-(difluoromethoxy)-4-[2-[[6-(1-hydroxy-1-methyl-ethyl)pyridazin-3-yl]amino]pyrazolo[1,5-a]pyridin-5-yl]-3-pyridyl]oxy]-2,2-dimethyl-propanenitrile], the half-maximal inhibitory concentration (IC50) was determined as 0.00411 µM.

Take `CC(C)(C#N)COc1cnc(OC(F)F)cc1-c1ccn2nc(Nc3cnc(C(C)(C)O)cn3)cc2c1` [Example 713, 3-[[6-(difluoromethoxy)-4-[2-[[5-(1-hydroxy-1-methyl-ethyl)pyrazin-2-yl]amino]pyrazolo[1,5-a]pyridin-5-yl]-3-pyridyl]oxy]-2,2-dimethyl-propanenitrile]: the IC50 was 0.00746 µM.

Turning to `Cn1ccc(Nc2cc3cc(-c4cc(OC(F)F)ncc4OCC(C)(C)C#N)ccn3n2)n1` [Example 714, 3-[[6-(difluoromethoxy)-4-[2-[(1-methylpyrazol-3-yl)amino]pyrazolo[1,5-a]pyridin-5-yl]-3-pyridyl]oxy]-2,2-dimethyl-propanenitrile], the IC50 amounted to 0.00617 µM.

On to `CNC(=O)c1cc(C)nc(Nc2cc3cc(-c4cc(OC(F)F)ncc4OCC(C)(C)C#N)ccn3n2)c1` [Example 715, 2-[[5-[5-(2-cyano-2-methyl-propoxy)-2-(difluoromethoxy)-4-pyridyl]pyrazolo[1,5-a]pyridin-2-yl]amino]-N,6-dimethyl-pyridine-4-carboxamide], for which the half-inhibitory concentration (IC50) worked out at 0.011 µM. Then `CC(C)(C#N)COc1cnc(OC(F)F)cc1-c1ccn2nc(Nc3cc4c(cn3)CNCC4)cc2c1` [Example 716, 3-[[6-(difluoromethoxy)-4-[2-(5,6,7,8-tetrahydro-2,7-naphthyridin-3-ylamino)pyrazolo[1,5-a]pyridin-5-yl]-3-pyridyl]oxy]-2,2-dimethyl-propanenitrile], with 0.0118 µM; and `Cc1nccc(Nc2cc3cc(-c4cc(OC(F)F)ncc4OCC(C)(C)C#N)ccn3n2)n1` [Example 717, 3-[[6-(difluoromethoxy)-4-[2-[(2-methylpyrimidin-4-yl)amino]pyrazolo[1,5-a]pyridin-5-yl]-3-pyridyl]oxy]-2,2-dimethyl-propanenitrile], with 0.00142 µM. `CC(C)(C#N)COc1cnc(OC(F)F)cc1-c1ccn2nc(Nc3cc4c(cn3)CCNC4)cc2c1` [Example 718, 3-[[6-(difluoromethoxy)-4-[2-(5,6,7,8-tetrahydro-2,6-naphthyridin-3-ylamino)pyrazolo[1,5-a]pyridin-5-yl]-3-pyridyl]oxy]-2,2-dimethyl-propanenitrile]: the 50% inhibitory concentration (IC50) worked out at 0.0182 µM. Then `CC(C)(C#N)COc1cnc(OC(F)F)cc1-c1ccn2nc(Nc3ccc4c(n3)CNCC4)cc2c1` [Example 719, 3-[[6-(difluoromethoxy)-4-[2-(5,6,7,8-tetrahydro-1,7-naphthyridin-2-ylamino)pyrazolo[1,5-a]pyridin-5-yl]-3-pyridyl]oxy]-2,2-dimethyl-propanenitrile], with 0.0216 µM; and `Cc1cc(Nc2cc3cc(-c4cc(OC(F)F)ncc4OCC4(C#N)CC4)ccn3n2)nc(C)n1` [Example 720, 1-[[6-(difluoromethoxy)-4-[2-[(2,6-dimethylpyrimidin-4-yl)amino]pyrazolo[1,5-a]pyridin-5-yl]-3-pyridyl]oxymethyl]cyclopropanecarbonitrile], with 0.00954 µM; and `Cc1cc(-c2ccn3nc(Nc4cc(C)nc(C)n4)cc3c2)c(OCCC2(C#N)COC2)cn1` [Example 722, 3-[2-[[4-[2-[(2,6-dimethylpyrimidin-4-yl)amino]pyrazolo[1,5-a]pyridin-5-yl]-6-methyl-3-pyridyl]oxy]ethyl]oxetane-3-carbonitrile], with 0.01 µM. For `O=C(Nc1cc2cc(-c3cc(OC(F)F)ncc3O[C@H]3CC[C@H](O)CC3)ccn2n1)C1CC1` [Example 723, N-[5-[2-(difluoromethoxy)-5-(4-hydroxycyclohexoxy)-4-pyridyl]pyrazolo[1,5-a]pyridin-2-yl]cyclopropanecarboxamide], the 50% inhibitory concentration (IC50) is 0.00163 µM. With `CC(C)(C#N)COc1cnc(OCC#N)cc1-c1ccn2nc(NC(=O)C3CC3)cc2c1` [Example 724, N-[5-[2-(cyanomethoxy)-5-(2-cyano-2-methyl-propoxy)-4-pyridyl]pyrazolo[1,5-a]pyridin-2-yl]cyclopropanecarboxamide] the figure was 0.0155 µM. For `CNc1nc(C)cc(Nc2cc3cc(-c4cc(OCC(F)F)ncc4OCC(C)(C)C#N)ccn3n2)n1` [Example 725, 3-[[6-(2,2-difluoroethoxy)-4-[2-[[6-methyl-2-(methylamino)pyrimidin-4-yl]amino]pyrazolo[1,5-a]pyridin-5-yl]-3-pyridyl]oxy]-2,2-dimethyl-propanenitrile], the IC50 was 0.00405 µM. Regarding `Cc1cc(Nc2cc3cc(-c4cc(OC(F)F)ncc4OCC(C)(C)C(N)=O)ccn3n2)nc(C)n1` [Example 727, 3-[[6-(difluoromethoxy)-4-[2-[(2,6-dimethylpyrimidin-4-yl)amino]pyrazolo[1,5-a]pyridin-5-yl]-3-pyridyl]oxy]-2,2-dimethyl-propanamide], the half-inhibitory concentration (IC50) stood at 0.0152 µM. Then `Cc1cc(Nc2cc3cc(-c4cc(OC(F)F)ncc4OCC(C)(C)C(=O)N(C)C)ccn3n2)nc(C)n1` [Example 728, 3-[[6-(difluoromethoxy)-4-[2-[(2,6-dimethylpyrimidin-4-yl)amino]pyrazolo[1,5-a]pyridin-5-yl]-3-pyridyl]oxy]-N,N,2,2-tetramethyl-propanamide], with 0.0049 µM; and `Cc1cc(Nc2cc3cc(-c4cc(OCC(F)F)ncc4OCC(C)(C)C#N)ccn3n2)nn(C2CC2)c1=O` [Example 730, 3-[[4-[2-[(1-cyclopropyl-5-methyl-6-oxo-pyridazin-3-yl)amino]pyrazolo[1,5-a]pyridin-5-yl]-6-(2,2-difluoroethoxy)-3-pyridyl]oxy]-2,2-dimethyl-propanenitrile], with 0.0154 µM. For the compound `Cc1cc(Nc2cc3cc(-c4cc(OC(F)F)ncc4OCC(C)(C)C(=O)N(C)C)ccn3n2)nc(C)n1` [Example 735, 3-[[6-(difluoromethoxy)-4-[2-[(2,6-dimethylpyrimidin-4-yl)amino]pyrazolo[1,5-a]pyridin-5-yl]-3-pyridyl]oxy]-N,N,2,2-tetramethyl-propanamide], the IC50 worked out at 0.00911 µM.

`Cc1cc(Nc2cc3cc(-c4cc(OCC(F)F)ncc4OCC(C)(C)C#N)ccn3n2)nn(C2CC2)c1=O` [Example 737, 3-((4-(2-((1-cyclopropyl-5-methyl-6-oxo-1,6-dihydropyridazin-3-yl)amino)pyrazolo[1,5-a]pyridin-5-yl)-6-(2,2-difluoroethoxy)pyridin-3-yl)oxy)-2,2-dimethylpropanenitrile]: the IC50 is 0.014 µM.

Regarding `Cc1cc(Nc2cc3cc(-c4cc(OC(F)(F)F)ccc4OCC(C)(C)C#N)ccn3n2)nc(C)n1` [Example 754, 3-[2-[2-[(2,6-dimethylpyrimidin-4-yl)amino]pyrazolo[1,5-a]pyridin-5-yl]-4-(trifluoromethoxy)phenoxy]-2,2-dimethyl-propanenitrile], the IC50 was determined as 0.071 µM.

For the compound “(*S)-4-[[6-(difluoromethoxy)-4-[2-[(2,6-dimethylpyrimidin-4-yl)amino]pyrazolo[1,5-a]pyridin-5-yl]-3-pyridyl]oxymethyl]-1,5,5-trimethyl-pyrrolidin-2-one [Example 734]”, the IC50 stood at 0.00307 µM. Then “(*S)-4-[[6-(difluoromethoxy)-4-[2-[(2,6-dimethylpyrimidin-4-yl)amino]pyrazolo[1,5-a]pyridin-5-yl]-3-pyridyl]oxymethyl]-1,5,5-trimethyl-pyrrolidin-2-one [Example 741]”, with 0.00266 µM; and “N-[5-[2-cyano-5-[[(1R,5S,7s)-9-methyl-3-oxa-9-azabicyclo[3.3.1]nonan-7-yl]oxy]-4-pyridyl]pyrazolo[1,5-a]pyridin-2-yl]cyclopropanecarboxamide [Example 656]”, with 0.132 µM.
